Measured values: patent publication US9815868B2, “Peptides binding to parallel-stranded G-quadruplexes” (NANYANG TECHNOLOGICAL UNIVERSITY, priority 2013, dated 2017)

Key:
[1] = target: G-quadruplexes; conditions: literature statement; cited from earlier work
[2] = target: T95_2T (single loop propeller-type parallel G-quadruplex); experiment: Quantitative gel mobility shift assay of Rhau55 binding to T95_2T; conditions: gel electrophoresis, DNA 100 nM, read-out: dissociation constant
Description: (§1) (A) T95_2 T and Htelo1 at a concentration of 100 nM were incubated for 15 minutes at room temperature with an increasing concentration of Rhau55. (B) Quantification of gel electrophoresis assays bands of T95_2 T (black dot) and Htelo1 in dilute (open square) and crowding condition (black cross).
(§2) Subsequently, a quantitative analysis of the interaction between Rhau55 and three G-quadruplexes was performed using gel electrophoresis (FIG. 4). The analysis indicated a dissociation constant of 1029 nM and 989 nM for the parallel-type form of Htelo1 (under crowded condition) and the single, loop propeller-type T95_2 T, respectively, consistent with previous published data for the full-length protein (Tran H et al. (2004) Mol Cell, 13, 101). In contrast an apparent binding of >10 μM was found with the hybrid “3+1” form 1, and an estimated Kd over 10 μM was found for Htelo2, Htelo3 and Hetol4 non-parallel forming sequences, highlighting a net preference for the human telomeric sequences forming a parallel-type G-quadruplex. From the data little effect on three (Htelo1, parallel form) and single (T95_2T) loop size was observed on Rhau55 binding affinity.

[3] = target: parallel-type form of Htelo1 (under crowded condition); experiment: Quantitative gel mobility shift assay, Htelo1 in crowding condition (40% PEG); format: binding, human; conditions: parallel-type form of Htelo1 under crowded condition (40% PEG); gel electrophoresis; read-out: dissociation constant
Description: as §1
(§3) To confirm that the observed selective effect was based on the structure rather than sequence, the binding of Rhau55 was tested using the human telomeric sequences in K^+-containing solution, with and without crowded condition (40% v/v PEG200). In diluted solutions the human telomeric sequences Htelo1, Htelo2, Htelo3 and Helo4 form a distinct and non-parallel G-quadruplex (Luu K N et al. (2006) J Am ChemSoc, 128(30), 9963-9970; Phan A T et al. (2006) Nucleic Acids Res, 34(19), 5715-5719; Lim K W et al. (2009) J Am ChemSoc, 131(12), 4301-430; Lim K W et al. (2009) Nucleic Acids Res, 37(18), 6239-6248), however in crowded conditions those sequences form a propeller-type parallel stranded G-quadruplex.
Subsequently, a quantitative analysis of the interaction between Rhau55 and three G-quadruplexes was performed using gel electrophoresis (FIG. 4). […]

[4] = target: Htelo1 hybrid "3+1" form 1 G-quadruplex; experiment: Quantitative gel mobility shift assay, Htelo1 in dilute condition; parameters: species or system human; conditions: Htelo1 hybrid "3+1" form 1, dilute condition; read-out: apparent binding
Description: as §1, §2

[5] = target: Htelo2 non-parallel G-quadruplex; experiment: Gel electrophoresis binding, Htelo2; parameters: species or system human; conditions: Htelo2 non-parallel forming sequence; read-out: estimated Kd
Description: (§4) DNA concentrations were fixed at 100 nM and Rhau55 was 1 μM, in 70 mM KCL and 20 mM phosphate buffer (pH=6.8).
as §3
(§5) Subsequently, a quantitative analysis of the interaction between Rhau55 and three G-quadruplexes was performed using gel electrophoresis (FIG. 4). The analysis indicated a dissociation constant of 1029 nM and 989 nM for the parallel-type form of Htelo1 (under crowded condition) and the single, loop propeller-type T95_2 T, respectively, consistent with previous published data for the full-length protein (Tran H et al. (2004) Mol Cell, 13, 101). […]

[6] = target: Htelo3 non-parallel G-quadruplex; experiment: Gel electrophoresis binding, Htelo3; parameters: species or system human; conditions: Htelo3 non-parallel forming sequence; read-out: estimated Kd
Description: as §4, §3, §5

[7] = target: Htelo4 non-parallel G-quadruplex; experiment: Gel electrophoresis binding, Htelo4; parameters: species or system human; conditions: Hetol4 non-parallel forming sequence; read-out: estimated Kd
Description: as §4, §3, §5

[8] = test system: parallel G-quadruplexes DNA and RNA (93del, CEB25, Pu24T, CEB1, TERC18, 12 nt TER, 10 nt TER); experiment: Native gel electrophoresis of Rhau55 with parallel G-quadruplexes; format: binding; conditions: various parallel G-quadruplexes DNA and RNA; DNA 100 μM, 70 mM KCl, 20 mM phosphate pH 6.8
Description: The ratio between Rhau55 and Nucleic acids is indicated on top of each lane. DNA concentrations were fixed at 100 μM, in 70 mM KCL and 20 mM phosphate buffer (pH=6.8).
Rhau55 was expressed in Escherichia coli. The binding of Rhau55 to different G-quadruplexes nucleic acids topology was first tested using gel electrophoresis.
(§6) Rhau55 binds to various parallel G-quadruplexes DNA and RNA (FIGS. 1 and 3-5) but not to various forms of non-parallel G-quadruplexes (FIGS. 1 and 6).

[9] = test system: human telomeric sequences Htelo1-Htelo4 G-quadruplexes; experiment: Gel shift assay of human telomeric sequences with and without crowded condition (40% v/v PEG200); format: binding; conditions: human telomeric sequences in K+ solution, dilute (non-parallel) vs crowded 40% v/v PEG200 (parallel)
Description: as §4, §3

[10] = test system: mixture of T95_2T (propeller parallel form) and HT1 (non-parallel); experiment: NMR imino proton spectra of a mixture of HT1 and T95_2T with Rhau55; format: binding; conditions: Rhau55 added to mixture of T95_2T (parallel) and HT1 (non-parallel)
Text: as §6

Kd [2] [µM]	Kd [3] [µM]	Kd [4] [µM]	Kd [5] [µM]	Kd [6] [µM]	Kd [7] [µM]	binding in gel electrophoresis [8]	Compound	dissociation constant Kd [1]	binding in gel shift assay [9]	effect on NMR imino proton peaks [10]
–	–	–	–	–	–	–	C[n+]1cc(NC(=O)c2ccc3ccc4ccc(C(=O)Nc5cc6ccccc6[n+](C)c5)nc4c3n2)cc2ccccc21 [Phen-DC3]	nanomolar range	–	–
0.989	1.03	> 10	> 10	> 10	> 10	binds	Rhau55: G-quadruplex binding domain of human helicase Rhau (DHX36), N-terminal residues 53 to 105, expressed in Escherichia coli (HPGHLKGREIGMWYAKKQGQKNKEAERQERAVVHMDERREEQIVQLLNSVQAK; UniProt Q9H2U1 53-105, looked up, fragment)	–	binds significantly only to a parallel-type G-quadruplex	only affect the peaks of the former form
